In one assay the target is T1, FLT3 Autoinh. (Homo sapiens, UniProt P36888).
T1 construct: purchased DiscoverX (KINOMEscan); host or cells: E. coli (T7 phage) or HEK-293
T1 sequence (P36888 564-993 limits assumed): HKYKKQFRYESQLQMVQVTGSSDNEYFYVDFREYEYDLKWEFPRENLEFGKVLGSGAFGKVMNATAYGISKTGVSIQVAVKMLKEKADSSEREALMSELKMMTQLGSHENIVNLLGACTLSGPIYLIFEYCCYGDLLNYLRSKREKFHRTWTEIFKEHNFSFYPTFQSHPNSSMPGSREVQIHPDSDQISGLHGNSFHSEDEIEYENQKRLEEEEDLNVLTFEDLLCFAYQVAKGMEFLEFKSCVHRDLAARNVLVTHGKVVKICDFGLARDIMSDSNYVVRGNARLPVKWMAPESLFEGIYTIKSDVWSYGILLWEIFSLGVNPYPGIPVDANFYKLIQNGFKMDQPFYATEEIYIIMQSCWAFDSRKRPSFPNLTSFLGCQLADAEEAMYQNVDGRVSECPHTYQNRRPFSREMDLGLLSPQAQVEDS
The experiment in a line: DiscoverX KINOMEscan competition binding assay, FLT3 Autoinh. An excerpt: (§1) Kinase binding data were obtained for various exemplary compounds prepared according to Examples 1-25 using the DiscoverX KINOMEscan® active site-directed competition binding site-directed assay protocol described below. […] As a result, the data report thermodynamic interaction affinities (Kd values), rather than IC50 values that are dependent on ATP concentrations. The assay uses a DNA-tagged version of the protein kinase, and an immobilized ligand bound to a solid support. Compounds that directly or indirectly prevent kinase binding to the immobilized ligand reduce the amount of kinase captured on the solid support, which is detected using an ultra-sensitive qPCR method. Affinity constants reported from the assay have been reported to be independent of the immobilized ligand used that is coupled to the solid support (See supplemental information in Fabian, M. A. et. al., (2005) Nat. Biotechnol. 23, 329-336; Wodicka, L. M. et. al., (2010) Chem. Biol. 17, 1241-1249.)
(§2) Kinase-tagged T7 phage strains were prepared in an E. coli host derived from the BL21 strain. E. coli were grown to log-phase and infected with T7 phage and incubated with shaking at 32° C. until lysis. The lysates were centrifuged and filtered to remove cell debris. The remaining kinases were produced in HEK-293 cells and subsequently tagged with DNA for qPCR detection. […] The liganded beads were blocked with excess biotin and washed with blocking buffer (SeaBlock (Pierce), 1% BSA, 0.05% Tween 20, 1 mM DTT) to remove unbound ligand and to reduce non-specific binding. […] Test compounds were prepared as 111× stocks in 100% DMSO. Kds were determined using an 11-point 3-fold compound dilution series with three DMSO control points. […] The compounds were then diluted directly into the assays such that the final concentration of DMSO was 0.9%. All reactions were performed in polypropylene 384-well plates. Each was a final volume of 0.02 mL. […] The kinase concentration in the eluates was measured by qPCR.
(§3) Binding constants (Kds) were calculated with a standard dose-response curve using the Hill equation. […]

The target in a further assay is T2, FLT3 R834Q (Homo sapiens, UniProt P36888, R834Q).
T2 construct: purchased DiscoverX (KINOMEscan); host or cells: E. coli (T7 phage) or HEK-293
T2 sequence (P36888 27-993 R834Q): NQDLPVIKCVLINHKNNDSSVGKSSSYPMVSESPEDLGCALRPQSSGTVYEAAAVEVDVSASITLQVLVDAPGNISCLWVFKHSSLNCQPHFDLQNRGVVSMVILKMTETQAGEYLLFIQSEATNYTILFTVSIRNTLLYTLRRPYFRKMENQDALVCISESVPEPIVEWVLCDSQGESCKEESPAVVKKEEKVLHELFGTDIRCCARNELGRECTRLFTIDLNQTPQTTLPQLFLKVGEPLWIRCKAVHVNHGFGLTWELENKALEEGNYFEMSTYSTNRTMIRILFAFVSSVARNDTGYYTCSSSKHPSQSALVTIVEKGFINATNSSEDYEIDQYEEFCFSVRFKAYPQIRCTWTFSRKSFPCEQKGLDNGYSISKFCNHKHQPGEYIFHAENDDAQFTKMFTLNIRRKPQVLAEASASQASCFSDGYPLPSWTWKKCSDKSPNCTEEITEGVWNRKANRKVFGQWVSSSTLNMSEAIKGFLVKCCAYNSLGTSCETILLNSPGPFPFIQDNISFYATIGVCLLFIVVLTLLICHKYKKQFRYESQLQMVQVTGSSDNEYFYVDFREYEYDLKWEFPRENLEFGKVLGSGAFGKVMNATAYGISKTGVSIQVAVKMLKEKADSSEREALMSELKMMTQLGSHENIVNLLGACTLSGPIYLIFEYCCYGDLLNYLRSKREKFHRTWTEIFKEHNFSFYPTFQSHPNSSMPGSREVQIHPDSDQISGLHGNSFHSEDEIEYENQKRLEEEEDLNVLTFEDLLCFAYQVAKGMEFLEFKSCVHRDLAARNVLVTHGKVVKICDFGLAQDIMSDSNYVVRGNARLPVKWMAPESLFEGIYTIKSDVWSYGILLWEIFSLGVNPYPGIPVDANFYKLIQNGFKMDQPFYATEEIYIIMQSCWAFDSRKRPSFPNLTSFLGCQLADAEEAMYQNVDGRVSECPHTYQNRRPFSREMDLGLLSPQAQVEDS
The experiment in a line: DiscoverX KINOMEscan competition binding assay, FLT3 R834Q.
Description: as §1, §2, §3

As a reminder, the Kd is the free concentration of one partner at which half of the binding sites on the other are occupied at equilibrium, for simple one-to-one binding. Low values mean tighter binding, high ones weaker binding.

In the case of `COc1cc2ncc(-c3cccc(N[C@H]4CNC[C@@H]4F)n3)n2nc1C1CC1` [Compound 96, 6-(6-cyclopropyl-7-methoxyimidazo[1,2-b]pyridazin-3-yl)-N-((3S,4S)-4-fluoropyrrolidin-3-yl)pyridin-2-amine], the equilibrium dissociation constant (Kd) stood at 11 nM at FLT3 Autoinh. and 1.6 nM at FLT3 R834Q.

For `COc1cc2ncc(-c3cccc(N[C@@H]4CCNC4)n3)n2nc1C1CC1` [Compound 97, (R)-6-(6-cyclopropyl-7-methoxyimidazo[1,2-b]pyridazin-3-yl)-N-(pyrrolidin-3-yl)pyridin-2-amine], the values for the dissociation constant (Kd) at FLT3 Autoinh. and on FLT3 R834Q were 13 nM and 0.8 nM, respectively.

For the compound `COc1cc2ncc(-c3cccc(N[C@H]4CNCC[C@@H]4F)n3)n2nc1C1CC1` [Compound 102, 6-(6-cyclopropyl-7-methoxyimidazo[1,2-b]pyridazin-3-yl)-N-((3S,4S)-4-fluoropiperidin-3-yl)pyridin-2-amine], the values for the dissociation constant Kd at FLT3 Autoinh. and at FLT3 R834Q were 17 nM and 0.61 nM, respectively.

The record behind these values is patent publication US12534469B2 (CHILDREN'S HOSPITAL MEDICAL CENTER, priority 2020, dated 2026).
